Reference: PubChem BioAssay AID248 (DTP/NCI, 2004)
Inconclusive results and toxic doses are left out. Rule as the data show it: active = T/C of 150% or more; inactive = T/C below 125%.

System: L1210 leukemia ip in BDF1 mice, survival T/C
Assay: NCI In Vivo Anticancer Drug Screen. Data for tumor model L1210 Leukemia (intraperitoneal) in B6D2F1 (BDF1) mice
Details: endpoint: mean survival time, higher = longer survival
In short: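 Value reflects the ratio of survival in compound-treated mice to survival in vehicle-treated controls, with both groups carrying the same transplanted tumor.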

[1] = dose: 100.0 mg/kg/injection, schedule: Q01DX001 (ip), vehicle: saline with Tween-80
[2] = dose: 200.0 mg/kg/injection, schedule: Q01DX001 (ip), vehicle: saline with Tween-80
[3] = dose: 100.0 mg/kg/injection, schedule: Q01DX001 (ip), vehicle: saline
[4] = dose: 100.0 mg/kg/injection, schedule: Q04DX003 (ip), vehicle: saline
[5] = dose: 200.0 mg/kg/injection, schedule: Q01DX001 (ip), vehicle: saline
[6] = dose: 200.0 mg/kg/injection, schedule: Q04DX003 (ip), vehicle: saline
[7] = dose: 100.0 mg/kg/injection, schedule: Q01DX001 (ip), vehicle: carboxymethylcellulose (CMC)
[8] = dose: 200.0 mg/kg/injection, schedule: Q01DX001 (ip), vehicle: carboxymethylcellulose (CMC)
[9] = dose: 400.0 mg/kg/injection, schedule: Q01DX001 (ip), vehicle: carboxymethylcellulose (CMC)

Measured: T/C

COc1ccc2nc(NCN3C(=O)c4ccccc4C3=O)sc2c1
inactive: dose: 100.0 mg/kg/injection, schedule: Q01DX009 (ip), vehicle: saline with Tween-80 96 % of control | dose: 100.0 mg/kg/injection, schedule: Q04DX003 (ip), vehicle: acetone 88 % of control | dose: 200.0 mg/kg/injection, schedule: Q01DX009 (ip), vehicle: saline with Tween-80 95 % of control | dose: 200.0 mg/kg/injection, schedule: Q04DX003 (ip), vehicle: acetone 88 % of control | dose: 400.0 mg/kg/injection, schedule: Q01DX009 (ip), vehicle: saline with Tween-80 93 % of control | dose: 400.0 mg/kg/injection, schedule: Q04DX003 (ip), vehicle: acetone 90 % of control

S=C=NCc1cccc2ccccc12
inactive: dose: 2.5 mg/kg/injection, schedule: Q01DX009 (ip), vehicle: carboxymethylcellulose (CMC) 90 % of control | dose: 5.0 mg/kg/injection, schedule: Q01DX009 (ip), vehicle: carboxymethylcellulose (CMC) 94 % of control | dose: 5.0 mg/kg/injection, schedule: Q04DX003 (ip), vehicle: carboxymethylcellulose (CMC) 101 % of control | dose: 10.0 mg/kg/injection, schedule: Q01DX001 (ip), vehicle: carboxymethylcellulose (CMC) 93 % of control | dose: 10.0 mg/kg/injection, schedule: Q01DX009 (ip), vehicle: carboxymethylcellulose (CMC) 105 % of control | dose: 10.0 mg/kg/injection, schedule: Q04DX003 (ip), vehicle: carboxymethylcellulose (CMC) 97 % of control | dose: 20.0 mg/kg/injection, schedule: Q01DX001 (ip), vehicle: carboxymethylcellulose (CMC) 87 % of control | dose: 20.0 mg/kg/injection, schedule: Q04DX003 (ip), vehicle: carboxymethylcellulose (CMC) 97 % of control

Nc1nc2ncc(CNc3ccc(CCC(=O)NC(CCC(=O)O)C(=O)O)cc3)nc2c(=O)[nH]1 (stereo not drawn)
inactive: dose: 50.0 mg/kg/injection, schedule: Q01DX001 (ip), vehicle: saline with Tween-80 108 % of control | [1] 100 % of control | [2] 101 % of control

C=C1C(=O)O[C@@H]2CC(C)=C3CC[C@@](C)(O)[C@@H]3C[C@H]12
inactive: dose: 75.0 mg/kg/injection, schedule: Q04DX003 (ip), vehicle: Klucel (hydroxypropylcellulose) (HPC) 106 % of control | dose: 150.0 mg/kg/injection, schedule: Q04DX003 (ip), vehicle: Klucel (hydroxypropylcellulose) (HPC) 102 % of control | dose: 300.0 mg/kg/injection, schedule: Q04DX003 (ip), vehicle: Klucel (hydroxypropylcellulose) (HPC) 98 % of control | dose: 600.0 mg/kg/injection, schedule: Q04DX003 (ip), vehicle: Klucel (hydroxypropylcellulose) (HPC) 94 % of control

CN(N)C(=S)c1ccc(Cl)cc1
inactive: dose: 50.0 mg/kg/injection, schedule: Q04DX003 (ip), vehicle: saline 102 % of control | [3] 95 % of control | [4] 100 % of control | [5] 93 % of control | [6] 96 % of control

C=CCc1cnc(SCc2ccccc2)[nH]c1=O
inactive: dose: 100.0 mg/kg/injection, schedule: Q01DX001 (ip), vehicle: gum acacia 101 % of control | dose: 200.0 mg/kg/injection, schedule: Q01DX001 (ip), vehicle: gum acacia 91 % of control | dose: 400.0 mg/kg/injection, schedule: Q01DX001 (ip), vehicle: gum acacia 94 % of control

CC1(C)N=C(N)N=C(N)N1c1ccc(CC(C(=O)Nc2ccc(S(=O)(=O)F)cc2)c2cccc3ccccc23)cc1 (stereo not drawn)
inactive: dose: 100.0 mg/kg/injection, schedule: Q01DX001 (ip), vehicle: Klucel (hydroxypropylcellulose) (HPC) 95 % of control | dose: 200.0 mg/kg/injection, schedule: Q01DX001 (ip), vehicle: Klucel (hydroxypropylcellulose) (HPC) 89 % of control | dose: 400.0 mg/kg/injection, schedule: Q01DX001 (ip), vehicle: Klucel (hydroxypropylcellulose) (HPC) 89 % of control

O=C(COc1ccc(Cl)cc1)NC(CO)(CO)CO
inactive: dose: 100.0 mg/kg/injection, schedule: Q04DX002 (ip), vehicle: saline with Tween-80 103 % of control | dose: 200.0 mg/kg/injection, schedule: Q04DX002 (ip), vehicle: saline with Tween-80 103 % of control | dose: 400.0 mg/kg/injection, schedule: Q04DX002 (ip), vehicle: saline with Tween-80 103 % of control

O=C(Nc1nccs1)C(F)(F)F
inactive: [3] 109 % of control | [5] 109 % of control | dose: 400.0 mg/kg/injection, schedule: Q01DX001 (ip), vehicle: saline 102 % of control

COc1cccc2c1OC(COS(C)(=O)=O)CO2 (stereo not drawn) (tested in a mixture with another compound)
inactive: [7] 95 % of control | [8] 95 % of control | [9] 97 % of control

CCOC(=O)C(C)C(c1ccccc1)c1ccccc1 (stereo not drawn)
inactive: dose: 100.0 mg/kg/injection, schedule: Q04DX003 (ip), vehicle: saline with Tween-80 92 % of control | dose: 200.0 mg/kg/injection, schedule: Q04DX003 (ip), vehicle: saline with Tween-80 93 % of control | dose: 400.0 mg/kg/injection, schedule: Q04DX003 (ip), vehicle: saline with Tween-80 96 % of control

S=c1nc2ccccn2c(=S)n1-c1ccccn1
inactive: [1] 106 % of control | [2] 100 % of control

CC(=O)Nc1cccc(OCCCOc2cccc(C(=N)N)c2)c1
inactive: dose: 50.0 mg/kg/injection, schedule: Q01DX009 (ip), vehicle: Klucel (hydroxypropylcellulose) (HPC) 103 % of control | dose: 100.0 mg/kg/injection, schedule: Q01DX009 (ip), vehicle: Klucel (hydroxypropylcellulose) (HPC) 100 % of control | dose: 200.0 mg/kg/injection, schedule: Q01DX009 (ip), vehicle: Klucel (hydroxypropylcellulose) (HPC) 94 % of control

CC(C)/C=N/N(C)C(=O)Nc1cccc2ccccc12
inactive: dose: 50.0 mg/kg/injection, schedule: Q01DX001 (ip), vehicle: carboxymethylcellulose (CMC) 97 % of control | [7] 94 % of control | [8] 94 % of control | [9] 90 % of control

C(=N/OC(c1ccccc1)(c1ccccc1)c1ccccc1)/c1ccccc1
inactive: dose: 50.0 mg/kg/injection, schedule: Q01DX009 (ip), vehicle: saline 98 % of control | dose: 75.0 mg/kg/injection, schedule: Q04DX003 (ip), vehicle: saline 92 % of control | dose: 100.0 mg/kg/injection, schedule: Q01DX009 (ip), vehicle: saline 104 % of control | dose: 100.0 mg/kg/injection, schedule: Q04DX003 (ip), vehicle: Klucel (hydroxypropylcellulose) (HPC) 101 % of control | [4] 95 % of control | dose: 150.0 mg/kg/injection, schedule: Q04DX003 (ip), vehicle: saline 94 % of control | dose: 200.0 mg/kg/injection, schedule: Q01DX009 (ip), vehicle: saline 98 % of control | dose: 200.0 mg/kg/injection, schedule: Q04DX003 (ip), vehicle: Klucel (hydroxypropylcellulose) (HPC) 103 % of control | [6] 95 % of control | dose: 300.0 mg/kg/injection, schedule: Q04DX003 (ip), vehicle: saline 89 % of control | dose: 400.0 mg/kg/injection, schedule: Q04DX003 (ip), vehicle: Klucel (hydroxypropylcellulose) (HPC) 101 % of control | dose: 400.0 mg/kg/injection, schedule: Q04DX003 (ip), vehicle: saline 95 % of control

CCCCCCP(=S)(CCCC)CCCCCC
inactive: dose: 100.0 mg/kg/injection, schedule: Q04DX002 (ip), vehicle: Klucel (hydroxypropylcellulose) (HPC) 102 % of control | dose: 200.0 mg/kg/injection, schedule: Q04DX002 (ip), vehicle: Klucel (hydroxypropylcellulose) (HPC) 102 % of control | dose: 400.0 mg/kg/injection, schedule: Q04DX002 (ip), vehicle: Klucel (hydroxypropylcellulose) (HPC) 102 % of control
